Measurements reported in patent publication US20220372498A1, “STABILIZER FOR ADENO-ASSOCIATED VIRUSES AND METHOD FOR STABILIZING ADENO-ASSOCIATED VIRUSES BY USING SAME” (priority 2020, published 2022).

Legend:
[1] = tested on: adeno-associated virus serotype 9 (AAV 9); assay: Crystal formation and average particle size after mixing surfactant-treated AAV solution with tannic acid solution (DLS, microscope); type: physicochemical; settings: surfactant 0.05% (w/w) in AAV solution (PBS, pH 7.4) + 0.5 mM tannic acid, after about 10 minutes
Protocol: The present inventors tried to check the change in AAV stability by treating a surfactant to solve the problem of AAV aggregation when preparing a gene delivery system using AAV. To this end, the effect was verified for various types of surfactants known in the art. More specifically, after mixing 50 uL of 0.5 mM tannic acid solution with 1×108 genome/ul AAV solution in which each of Tween 80, Triton X, CHAPS, cetrimonium bromide (CTAB), and sodium deoxycholate was present in a concentration of 0.05% (w/w) (PBS, pH 7.4), and then after about 10 minutes, the average particle size was measured through dynamic light scattering (DLS), and the formation of crystals that could cause blood vessel clogging was observed under a microscope. At this time, as a condition not treated with a surfactant, 50 uL of a 1×108 genome/ul AAV solution (PBS, pH 7.4) was mixed with 50 uL of 0.5 mM tannic acid solution, and average particle size measurement and microscopic observation were performed in the same manner as above.

[2] = tested on: adeno-associated virus serotype 9 (AAV 9); assay: AAV stability according to surfactant concentration (UV-Vis absorbance 600 nm scattering, microscope); type: physicochemical; settings: 0.5 mM tannic acid
Protocol: 50 uL of 0.5 mM tannic acid solution was mixed with 1×108 genome/ul AAV solution in which Tween 80, a nonionic surfactant, is present in a concentration of 0.2%, 0.05%, 0.0125%, and 0.003% (w/w) (PBS, pH 7.4), respectively, and about 5 minutes after, UV-Vis absorbance in the 600 nm wavelength band was measured for scattering, and crystal formation was observed under a microscope.
In addition, under conditions in which Triton X, another nonionic surfactant, is present in a concentration of 0.05%, 0.0125, 0.003%, and 0.0008% (w/w), respectively, AAV and tannic acid solutions were mixed in the same method as above, and the same experiment was performed, and the result was observed.
50 uL of 0.5 mM tannic acid solution was mixed with 1×108 genome/ul AAV solution in which the zwitterionic surfactant CHAPS is present in a concentration of 0.4%, 0.1%, 0.025%, 0.006% (w/w) (PBS, pH 7.4), respectively, and after about 5 minutes, UV-Vis absorbance in the 600 nm wavelength band was measured for scattering, and crystal formation was observed under a microscope.
50 uL of 0.5 mM tannic acid solution was mixed with 1×108 genome/ul AAV solution in which the cationic surfactant CTAB is present in a concentration of 0.4%, 0.1%, 0.025%, 0.006% (w/w) (PBS, pH 7.4), respectively, and after about 5 minutes, UV-Vis absorbance in the 600 nm wavelength band was measured for scattering, and crystal formation was observed under a microscope.
50 uL of 0.5 mM tannic acid solution was mixed with 1×108 genome/ul AAV solution in which the anionic surfactant sodium deoxycholate is present in a concentration of 0.2%, 0.05%, 0.0125%, […] (w/w) (PBS, pH 7.4), respectively, and after about 5 minutes, UV-Vis absorbance in the 600 nm wavelength band was measured for scattering, and crystal formation was observed under a microscope.

[3] = tested on: adeno-associated virus serotype 9 (AAV 9); assay: Crystal formation after mixing FBS with surfactant-containing AAV and tannic acid (microscope); type: physicochemical; settings: surfactant 0.05% (w/w), 0.5 mM tannic acid, then 50 uL of 10% FBS
Protocol: Furthermore, the present inventors have attempted to verify whether the formation of a potential crystal structure that may block blood vessels when mixed with plasma may be suppressed through the treatment of a surfactant additionally. To this end, 50 uL of 0.5 mM tannic acid solution was mixed with 50 uL of 1×108 genome/ul AAV solution (PBS, pH 7.4) containing each of CTAB, Tween 80, and CHAPS in a concentration of 0.05% (w/w), and then about 5 minutes after, 50 uL of 10% FBS solution was mixed and observed whether crystals of 10 μm or larger were formed under a microscope.

[4] = Viability of mice after tail vein injection of AAV / tannic acid / Tween 80 mixtures; settings: in vivo
Description: On the other hand, the presence or absence of the formation of such crystalline particles is one of the major factors affecting the survival of experimental animals in animal experiments. Crystalline particles of more than 10 μm can block capillaries in the body, and clogged blood vessels can cause ischemic disease, myocardial infarction, cerebral infarction, rupture of blood vessels, etc., and in severe cases, leading to death. Therefore, the present inventors tried to experimentally confirm how the crystallinity was confirmed in the results of FIG. 1A affects the survival of mice. To this end, 50 uL of 0.5 mM or 0.25 mM tannic acid solution was mixed with 50 uL of 2×109 genome/ul AAV solution containing Tween 80 in a concentration of 0.01% (w/w) (PBS, pH 7.4), and then viability was confirmed by injecting 100 uL of mixed solution into the tail vein of the mouse within about 30 minutes (0.01% (w/w) Tween 80+0.5 mM TA+AAV/0.01% (w/w) Tween 80+0.25 mM TA+AAV). In addition, as a condition with the absence of surfactant, 50 uL of 2×109 genome/ul AAV solution without Tween 80 was mixed with tannic acid under the same conditions and injected into the tail vein of mice (0.5 mM TA+AAV/0.25 mM TA+AAV). […]

[5] = tested on: adeno-associated virus serotype 9 (AAV 9); assay: In vitro stability of particle size over time (DLS; UV-Vis 600 nm scattering); type: physicochemical; settings: surfactant 0.05% (w/w); 0 min, 30 min, 1 day; compared among Tween 80, CHAPS, sodium deoxycholate
Protocol: The size and shape of AAV particles must be maintained constantly from mixing to injection. Therefore, it was analyzed whether the particle size was maintained until after 30 minutes, which is a time taken from mixing to injection, and a sufficient time, one day. To this end, 50 uL of 0.5 mM tannic acid solution was mixed with 1×108 genome/ul AAV solution in which Tween 80 is present in a concentration of 0.01% (w/w) (PBS, pH 7.4), and then, after about 5 minutes, the average particle sizes were measured at 0 min, […], and 1 day, respectively, through a dynamic light scattering method, and the increase in particle sizes was compared with the initial value.
In addition, 50 uL of 0.5 mM tannic acid solution was mixed with 1×108 genome/ul AAV solution in which various types of surfactants, i.e., Tween 80, CHAPS, and sodium deoxycholate are present in a concentration of 0.05% (w/w) each (PBS, pH 7.4), and then, after about 5 minutes, UV-Vis absorbance of each 600 nm wavelength band was measured at 0 min (min), 30 min, and 1 day (day) to measure the scattering degree. The change in particle size over time was analyzed through an increase in scattering compared to the initial value.

[6] = tested on: adeno-associated virus serotype 9 (AAV 9); assay: AAV stability with albumin alone (DLS, microscope); type: physicochemical; settings: 0.5 mM tannic acid, about 10 minutes
Protocol: 50 uL of 0.5 mM tannic acid solution was mixed with 1×108 genome/ul AAV solution in which the albumin is present at various concentrations of 10%, 1%, 0.1%, 0.01% (w/w) (PBS, pH 7.4), respectively, and after about 10 minutes, the average particle size was measured through dynamic light scattering, and particle formation was observed under a microscope.

[7] = surfactant 0.006% (w/w), PBS pH 7.4, about 5 minutes
[8] = surfactant 0.025% (w/w), PBS pH 7.4, about 5 minutes
[9] = surfactant 0.4% (w/w), PBS pH 7.4, about 5 minutes
[10] = surfactant 0.003% (w/w), PBS pH 7.4, about 5 minutes
[11] = surfactant 0.0125% (w/w), PBS pH 7.4, about 5 minutes

Compound: C[C@H](CCC(=O)NCCC[N+](C)(C)CCCS(=O)(=O)[O-])[C@H]1CC[C@H]2[C@@H]3[C@H](O)C[C@@H]4C[C@H](O)CC[C@]4(C)[C@H]3C[C@H](O)[C@]12C [CHAPS, 3-[(3-cholamidopropyl)dimethylammonio]-1-propanesulfonate]
- formation of crystalline particles in which AAV was aggregated (microscope) [1]: not observed
- particle / crystal formation [2, 7]: crystal structure was formed
- particle / crystal formation [2, 8]: nano-sized particles were formed
- particle / crystal formation ([2]; surfactant 0.1% (w/w), PBS pH 7.4, about 5 minutes): crystal structure was formed
- particle / crystal formation [2, 9]: crystal structure was formed
- formation of crystals of 10 μm or larger after mixing FBS [3]: crystals are not formed

Compound: CCCCCCCCCCCCCCCC[N+](C)(C)C.[Br-] [CTAB, cetrimonium bromide]
- formation of crystalline particles in which AAV was aggregated (microscope) [1]: not observed
- particle / crystal formation [2, 7]: crystal structure was formed
- particle / crystal formation [2, 8]: nano-sized particles
- particle / crystal formation [2, 9]: crystal structure was formed
- formation of crystals of 10 μm or larger after mixing FBS [3]: crystals are not formed

Compound: O=C(OC[C@H]1O[C@@H](OC(=O)c2cc(O)c(O)c(OC(=O)c3cc(O)c(O)c(O)c3)c2)[C@H](OC(=O)c2cc(O)c(O)c(OC(=O)c3cc(O)c(O)c(O)c3)c2)[C@@H](OC(=O)c2cc(O)c(O)c(OC(=O)c3cc(O)c(O)c(O)c3)c2)[C@@H]1OC(=O)c1cc(O)c(O)c(OC(=O)c2cc(O)c(O)c(O)c2)c1)c1cc(O)c(O)c(OC(=O)c2cc(O)c(O)c(O)c2)c1 [TA, tannic acid]
- Result (viability of mouse) [4]: Survival

Compound: Triton X
- formation of crystalline particles in which AAV was aggregated (microscope) [1]: not observed
- particle / crystal formation ([2]; surfactant 0.0008% (w/w), PBS pH 7.4, about 5 minutes): nano-sized particles were formed
- particle / crystal formation [2, 10]: nano-sized particles were formed
- particle / crystal formation [2, 11]: crystal structure was formed
- particle / crystal formation ([2]; surfactant 0.05% (w/w), PBS pH 7.4, about 5 minutes): crystal structure was formed

Compound: Tween 80
- formation of crystalline particles in which AAV was aggregated (microscope) [1]: not observed
- particle / crystal formation [2, 10]: crystal structure was formed
- particle / crystal formation [2, 11]: nano-sized particles
- particle / crystal formation ([2]; surfactant 0.2% (w/w), PBS pH 7.4, about 5 minutes): crystal structure was formed
- formation of crystals of 10 μm or larger after mixing FBS [3]: crystals are not formed
- change in particle size over time (increase in scattering, UV-Vis 600 nm) [5]: most stably maintained

Compound: albumin
- particle / crystal formation ([6]; albumin 0.01% (w/w)): crystal structure was formed
- particle / crystal formation ([6]; albumin 0.1% (w/w)): micro-sized particles were formed
- particle / crystal formation ([6]; albumin 1% (w/w)): crystal structure was formed
- particle / crystal formation ([6]; albumin 10% (w/w)): crystal structure was formed

Compound: sodium deoxycholate
- formation of crystalline particles in which AAV was aggregated (microscope) [1]: large fibrous particles were observed
- particle / crystal formation ([2]; all concentrations: 0.2%, 0.05%, 0.0125%, 0.0003% (w/w), PBS pH 7.4): crystal structure was formed
